Experimental data reported in paper PMC5601486, “Identification of 4-phenylquinolin-2(1H)-one as a specific allosteric inhibitor of Akt” (Scientific Reports, 2017).

Key:
[1] = test system: cleaved caspase 3; experiment: Western blot of cleaved caspase 3; assay type: cell-based, Mouse; conditions: Neuro 2A cells
Description: Neuro 2A cells were seeded in 12-well plates in DMEM containing 5% FBS for 24 hr.
After overnight serum starvation (in 0% FBS DMEM), cells were incubated for 30 min at 37 °C with G7 or LY294002 or Torin 1 (Sigma Aldrich) at various concentrations, or DMSO control. IGF-1 was added to each well at a final concentration of 100 ng/mL. After 30-min incubation cells were washed with cold PBS and lysed with 50 µL lysis buffer containing 1% Triton X-100 and protease/phosphatase inhibitors (Cell Signaling Technology) or RIPA buffer (Santa Cruz Biotech). Samples were electrophoresed in 4–12% Bis-Tris gels (Life Technologies) at 150 V using MOPS SDS running buffer. Proteins were transferred electrophoretically to a PVDF or nitrocellulose membrane. For detection of cleaved […]
caspase 3 a Trans-Blot Turbo Transfer System (Bio-Rad, 25 V for 25 min) with PVDF membrane were used. […]
anti- GAPDH (14C10) antibody (#2118) (all antibodies were from Cell Signaling Technology unless indicated, 1:1000 dilution was used) at 4°C overnight, washed three times with TBS-T, then incubated with peroxidase-conjugated secondary antibody (Sigma-Aldrich) for 1 hr at room temperature. […] Band intensity was quantitated using Kodak 1D imaging analysis software. […]

[2] = test system: NIH/3T3 cells; experiment: MTS cell proliferation/viability assay; assay type: cell-based; conditions: no longer proliferating, in comparison to LY or Torin 1
Description: Neuro 2A cells or NIH/3T3 cells (ATCC) were seeded at various confluency in a 96-well plate in 100 µL DMEM containing 5% FBS or 10% FBS with 1% penicillin streptomucin, respectively, at 37 °C in a 5% CO2 and 95% humidity incubator for 18 hr. To each well 1 µL inhibitor with various concentrations or DMSO was added. The final concentrations of the tested inhibitors were 0, 5, 10, 20, 40 and 80 µM for G7 and LY, and 0, 5, 10, 20, 40 and 80 nM for Torin1, based on their respective IC50 values (~µM for G7 and LY and ~ nM for Torin 1). After 24 hr, 20 µL of CellTiter 96® AQueous One Solution Reagent (Promega) were added. The plate was placed in the incubator for 2 h and absorbance at 490 nm was measured with a Synergy HT Microplate Reader (Bio-Tek).

[3] = test system: ACVRL1; experiment: KINOMEscan; conditions: 50000 nM
Description: KINOMEscan™ selectivity screen
(§1) The assay was perfor med at DiscoveRx Corporation according the methods published previously5. Briefly, Kinase-tagged T7 phage strains were grown in parallel in an E. coli host derived from the BL21 strain. E. coli were grown to log-phase and infected with T7 phage from a frozen stock and incubated with shaking at 32°C until lysis (90-150 minutes). The kinases were produced in HEK-293 cells and subsequently tagged with DNA for qPCR detection. Streptavidin-coated magnetic beads were treated with biotinylated small molecule ligands to generate affinity resins for kinase
(§2) inhibitor or DMSO control was performed in polypropylene 384-well plates for 1 hr at room temperature. After wash with PBS buffer containing 0.05% Tween 20, the beads were incubated in elution buffer (PBS containing 0.05 % Tween 20 and 0.5 μM non-biotinylated affinity ligand) for 30 minutes at room temperature. The kinase concentration in the eluates was measured by qPCR.

[4] = test system: CAMK4; experiment: KINOMEscan; conditions: 50000 nM
Description: KINOMEscan™ selectivity screen
as §1, §2

[5] = test system: IKK-epsilon; experiment: KINOMEscan; conditions: 50000 nM
Description: KINOMEscan™ selectivity screen
(§3) Briefly, Kinase-tagged T7 phage strains were grown in parallel in an E. coli host derived from the BL21 strain. E. coli were grown to log-phase and infected with T7 phage from a frozen stock and incubated with shaking at 32°C until lysis (90-150 minutes). The kinases were produced in HEK-293 cells and subsequently tagged with DNA for qPCR detection. Streptavidin-coated magnetic beads were treated with biotinylated small molecule ligands to generate affinity resins for kinase
as §2

[6] = test system: MLK2; experiment: KINOMEscan; conditions: 50000 nM
Description: KINOMEscan™ selectivity screen
as §1, §2

[7] = test system: RIPK1; experiment: KINOMEscan; conditions: 50000 nM
Description: KINOMEscan™ selectivity screen
as §1, §2

[8] = test system: STK33; experiment: KINOMEscan; conditions: 50000 nM
Description: KINOMEscan™ selectivity screen
as §1, §2

[9] = test system: WEE1; experiment: KINOMEscan; conditions: 50000 nM
Description: KINOMEscan™ selectivity screen
as §1, §2

[10] = test system: HIPK4; experiment: KINOMEscan; conditions: 50000 nM
Description: KINOMEscan™ selectivity screen
as §1, §2

[11] = test system: MELK; experiment: KINOMEscan; conditions: 50000 nM
Description: KINOMEscan™ selectivity screen
as §1, §2

[12] = test system: PCTK3; experiment: KINOMEscan; conditions: 50000 nM
Description: KINOMEscan™ selectivity screen
as §1, §2

[13] = test system: TNNI3K; experiment: KINOMEscan; conditions: 50000 nM
Description: KINOMEscan™ selectivity screen
as §1, §2

[14] = test system: AKT2; experiment: KINOMEscan; conditions: 50000 nM
Description: KINOMEscan™ selectivity screen
as §3, §2

[15] = test system: CDKL3; experiment: KINOMEscan; conditions: 50000 nM
Description: KINOMEscan™ selectivity screen
as §3, §2

[16] = test system: ERK1; experiment: KINOMEscan; conditions: 50000 nM
Description: KINOMEscan™ selectivity screen
as §1, §2

[17] = test system: PKN2; experiment: KINOMEscan; conditions: 50000 nM
Description: KINOMEscan™ selectivity screen
as §1, §2

[18] = test system: OSR1; experiment: KINOMEscan; conditions: 50000 nM
Description: KINOMEscan™ selectivity screen
as §3, §2

[19] = test system: DRAK2; experiment: KINOMEscan; conditions: 50000 nM
Description: KINOMEscan™ selectivity screen
as §1, §2

[20] = test system: FER; experiment: KINOMEscan; conditions: 50000 nM
Description: as §3, §2

[21] = test system: PAK4; experiment: KINOMEscan; conditions: 50000 nM
Description: as §3, §2

[22] = test system: JAK1(JH1domain-catalytic); experiment: KINOMEscan; conditions: 50000 nM
Description: KINOMEscan™ selectivity screen
as §1, §2

[23] = test system: CAMK2G; experiment: KINOMEscan; conditions: 50000 nM
Description: KINOMEscan™ selectivity screen
as §1, §2

[24] = test system: CSNK1A1L; experiment: KINOMEscan; conditions: 50000 nM
Description: KINOMEscan™ selectivity screen
as §1, §2

[25] = test system: HIPK1; experiment: KINOMEscan; conditions: 50000 nM
Description: KINOMEscan™ selectivity screen
as §3, §2

[26] = test system: IRAK3; experiment: KINOMEscan; conditions: 50000 nM
Description: KINOMEscan™ selectivity screen
as §3, §2

[27] = test system: RIPK5; experiment: KINOMEscan; conditions: 50000 nM
Description: KINOMEscan™ selectivity screen
as §1, §2

[28] = test system: MAP3K1; experiment: KINOMEscan; conditions: 50000 nM
Description: KINOMEscan™ selectivity screen
as §3, §2

[29] = test system: MST3; experiment: KINOMEscan; conditions: 50000 nM
Description: KINOMEscan™ selectivity screen
as §1, §2

[30] = test system: JAK3(JH1domain-catalytic); experiment: KINOMEscan; conditions: 50000 nM
Description: KINOMEscan™ selectivity screen
The assay was perfor med at DiscoveRx Corporation according the methods published previously5. […] The kinases were produced in HEK-293 cells and subsequently tagged with DNA for qPCR detection. Streptavidin-coated magnetic beads were treated with biotinylated small molecule ligands to generate affinity resins for kinase
as §2

[31] = test system: RSK4(Kin.Dom.2-C-terminal); experiment: KINOMEscan; conditions: 50000 nM
Description: KINOMEscan™ selectivity screen
as §1, §2

[32] = test system: FLT3(D835V); experiment: KINOMEscan; conditions: 50000 nM
Description: KINOMEscan™ selectivity screen
as §1, §2

Oc1cc(-c2ccccc2)c2ccccc2n1 [G7, 4-phenylquinolin-2(1H)-one]
levels of the cleaved caspase 3 [1]: elevated levels | inhibition of confluent NIH/3T3 cells [2]: considerably less inhibition | Percent Control [3]: 100% | Percent Control [4]: 100% | Percent Control [5]: 100% | Percent Control [6]: 100% | Percent Control [7]: 100% | Percent Control [8]: 100% | Percent Control [9]: 100% | Percent Control [10]: 98% | Percent Control [11]: 97% | Percent Control [12]: 96% | Percent Control [13]: 95% | Percent Control [14]: 93% | Percent Control [15]: 89% | Percent Control [16]: 89% | Percent Control [17]: 89% | Percent Control [18]: 87% | Percent Control [19]: 86% | Percent Control [20]: 84% | Percent Control [21]: 84% | Percent Control [22]: 82% | Percent Control [23]: 81% | Percent Control [24]: 81% | Percent Control [25]: 74% | Percent Control [26]: 74% | Percent Control [27]: 73% | Percent Control [28]: 71% | Percent Control [29]: 59% | Percent Control [30]: 56% | Percent Control [31]: 38% | Percent Control [32]: 7.6%
